Assay results reported in patent US20200157135A1, “SIDE-CHAIN MODIFIED ERGOSTEROL AND STIGMASTEROL DERIVATIVES AS LIVER X RECEPTOR MODULATORS” (Ospedale San Raffaele srl, priority 2017, published 2020).
Where two headings read alike, the source gives them in different places.

Experiments:
hLXRβ = target: T1, hLXRβ (Homo sapiens, UniProt P55055); assay: luciferase assay with GAL-4 chimeric hLXRβ receptor in human embryonic kidney 293 cells; format: cell-based; conditions: for Emax: HEK293, 24 h; for EC50: GAL4-hLXRβ luciferase, HEK293, dose-response 32-1 μM, mean of three-five independent experiments, read-out: LXRβ EC50 (μM) ± SD
T1 sequence (P55055 222-460 limits assumed): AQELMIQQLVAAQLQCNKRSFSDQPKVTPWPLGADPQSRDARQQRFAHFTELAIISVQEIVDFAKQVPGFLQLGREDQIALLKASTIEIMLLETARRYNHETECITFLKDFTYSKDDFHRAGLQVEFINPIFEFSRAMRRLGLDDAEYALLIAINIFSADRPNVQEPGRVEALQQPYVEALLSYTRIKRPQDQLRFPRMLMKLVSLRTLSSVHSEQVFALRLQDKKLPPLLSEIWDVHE
Experimental: (§1) All the synthesized compounds were first tested for their ability to activate LXRs by using luciferase assays with GAL-4 chimeric receptors. These were performed by co-transfecting plasmids encoding hLXRα- and β-binding domains fused to GAL-4, with the respective responsive element conjugated with the luciferase reporter gene into the human embryonic kidney 293 cells.
(§2) Cell Culture and Co-transfection Assays. Human embryonic Kidney 293 cells (American Type Culture Collection) were cultured in Dulbecco's Modified Eagle's medium containing 10% of fetal bovine serum at 37° C. in humidified atmosphere of 5% CO2. HEK293 cells (4×10^4 cells per well) were transiently transfected in 48 well plate with the reporter plasmids pMH100X4-TK-luc (100 ng/well), Renilla (22 ng/well) together with 100 ng/well of pCMX-Gal4-RXR, pCMX-Gal4-PPAR-γ, pCMX-Gal4-PXR, pFA-CMV-FXR pCMX-Gal4-LXR-α or pCMX-Gal4-LXR-β plasmids using X-tremeGENE 9 DNA Transfection Reagent (Roche). Six hours after transfection, the cells were treated with the appropriate compound for 24 hours. Luciferase activities were analyzed by luciferase Dual Reporter Assay Systems (Promega) according to the manufacturer's protocol. GAL4-LXRs, GAL4-PPAR-γ, GAL4-RXR and TK-MHC100-luc plasmids were described in Villablanca et al.49 GAL4-PXR was a kind gift of Dr. Enrique Sainz (The Scripps Research Institute, La Jolla, USA). GAL4-FXR was a kind gift of Dr. Daniel Merk (Goethe-University Frankfurt am Main). The results obtained by luciferase assays and reported in Table 1 are from three to five independent experiments.
(§3) Statistical analysis. Data are expressed as mean±SEM and were analyzed for significance by ANOVA with Dunnet's multiple comparison tests. The analysis was performed with Prism software. Data in Table 1 are expressed as EC50±SD. In particular, the standard deviations were obtained by calculating the mean of the EC50 of each experiment (three to five independent experiments). The efficacy (%) of the compounds was calculated as the percentage of the compound effect, in terms of LXRα or β activation, versus 8 μM of 22R—HC±SD. The analyses were performed with Prism software.

hLXRα = target: T2, hLXRα (Homo sapiens, UniProt Q13133); assay: luciferase assay with GAL-4 chimeric hLXRα receptor in human embryonic kidney 293 cells; format: cell-based; conditions: for Emax: HEK293, 24 h, read-out: LXRα Efficacy (%) ± SD; for EC50: GAL4-hLXRα luciferase, HEK293, dose-response 32-1 μM, mean of three-five independent experiments, read-out: LXRα EC50 (μM) ± SD
T2 sequence (Q13133 209-447 limits assumed): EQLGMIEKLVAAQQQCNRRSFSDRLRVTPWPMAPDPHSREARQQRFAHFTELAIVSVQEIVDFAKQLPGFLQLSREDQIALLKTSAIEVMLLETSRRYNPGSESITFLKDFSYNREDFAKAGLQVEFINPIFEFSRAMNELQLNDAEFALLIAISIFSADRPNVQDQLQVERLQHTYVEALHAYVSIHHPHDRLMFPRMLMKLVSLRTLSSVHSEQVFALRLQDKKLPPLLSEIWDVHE
Experimental: as §1, §2, §3

hPXR = assay: luciferase assay GAL4-hPXR in human embryonic kidney 293 cells; format: cell-based; conditions: compounds at 10 μM
Experimental: Human embryonic kidney 293 cells were co-transfected with GAL4-hRXR (A), GAL4-hPPARγ (B), GAL4-hPXR (C) and GAL4-hFXR (D) expression plasmids together with GAL4 responsive element pMHC100X4-TK-luc and Renilla plasmids. Cells were incubated with vehicle (DMSO), PFMs at the concentration of 10 μM, and the nuclear receptor specific ligands 9cis retinoic acid (100 nM) (A), Rosiglitazone (RSG 100 nM) (B), T0901317 (100 nM) (C) and GW4064 (100 nM) (D) for six hours. The values represent mean±S.D. RLA, relative luciferase activity.
The selectivity of our compounds within the nuclear receptor superfamily was also evaluated by luciferase assays using GAL4-RXR, -PPARγ, -PXR and -FXR plasmids.
as §2

MCP-1/CCL2 = assay: qPCR of CCL2 expression in differentiated U937 cells treated with LPS; format: cell-based, human; conditions: differentiated U937, 6 hours, 10 μM in combination with LPS (100 ng/ml)
Experimental: (§4) U937 cells differentiated with PMA for 72 hours were treated with LPS (100 ng/ml) in combination with T0901317 (10 μM) or with the title compounds (10 μM). […] (n=3/group). *p<0.05, **p<0.01, ***p<0.001.
(§5) Quantitative Real-Time-PCR. U937 cell line was differentiated in foam macrophages with phorbol 12-myristate 13-acetate (PMA) 10 ng/ml (Sigma) for 72 hours at 37° C. in […] at the concentration of 3×10^6 cells in 10 ml RPMI 10% FBS. At day 3 nuclear receptor ligands were added for 6 hours. HepG2 cells were treated with the ligands as described by Quinet et al.22 Total RNA was purified by TRIZOL (Invitrogen, Carlsbad, Calif., USA). Reverse transcription was performed incubating 2 μg of total RNA 1 hour at 42° C. with MLV-reverse transcriptase (Promega). Quantitative PCR was performed using Sybr Green Master Mix (Applied Biosystems) and real-time PCR (Viia 7 Real Time PCR System, Applied Biosystems). All PCR reactions were done in triplicate. The comparative Ct method was used to quantify transcripts that were normalized for human GAPDH. the following primer pairs were used: […]

SREBP1c [1] = assay: qPCR of SREBP1c expression in HepG2 cells; format: cell-based, human; conditions: 10 μM
Experimental: HepG2 cells were treated with T0901317 (10 μM), 22R—HC (3) (10 μM) or with the tested compound (10 μM). […] (n=3/group). *p<0.05, **p<0.01, ***p<0.001.
LXR agonists induce the expression of target genes, which are involved in cholesterol homeostasis, particularly in the reverse cholesterol transport pathway.43 Indeed, LXR agonists induce the expression of ABCA1 both in macrophages and in many tissues of the periphery such as the intestine.44 Moreover, ABCA1 regulates cholesterol efflux to APOAI acceptors.45 In the liver, LXR activation promotes the biosynthesis of fatty acids, a process also termed as de novo lipogenesis by inducing the expression of the master regulator of hepatic lipogenesis sterol-regulatory element-binding protein 1C (SREBP-1c), as well as several downstream genes in the SREBP-1c pathway, including steroyl CoA desaturase 1 (SCD1) and fatty acid synthase (FASN).43 Therefore, it was investigated, by quantitative PCR (qPCR), the expression of ABCA1, SREBP1c, FASN, and SCD1, by using RNA from monocytic U937 cells (FIG. 3) and from hepatic HepG2 cells (FIG. 4) stimulated with our compounds, the non-steroidal agonist T0901317 or the endogenous ligand 22R—HC (3) as positive controls. […] 43,22 was evaluated. […]
Quantitative Real-Time-PCR. […] The comparative Ct method was used to quantify transcripts that were normalized for human GAPDH. the following primer pairs were used: […]

SCD1 = assay: qPCR of SCD1 expression in PMA-differentiated U937 cells; format: cell-based, human; conditions: U937 differentiated with PMA 72 h; 10 μM, 6 hours
Experimental: (§6) U937 cells differentiated with PMA for 72 hours were treated with T0901317 (10 μM), 22R—HC (3) or with the tested compound (10 μM). […] (n=3/group). *p<0.05, **p<0.01, ***p<0.001.
(§7) LXR agonists induce the expression of target genes, which are involved in cholesterol homeostasis, particularly in the reverse cholesterol transport pathway.43 Indeed, LXR agonists induce the expression of ABCA1 both in macrophages and in many tissues of the periphery such as the intestine.44 Moreover, ABCA1 regulates cholesterol efflux to APOAI acceptors.45 In the liver, LXR activation promotes the biosynthesis of fatty acids, a process also termed as de novo lipogenesis by inducing the expression of the master regulator of hepatic lipogenesis sterol-regulatory element-binding protein 1C (SREBP-1c), as well as several downstream genes in the SREBP-1c pathway, including steroyl CoA desaturase 1 (SCD1) and fatty acid synthase (FASN).43 Therefore, it was investigated, by quantitative PCR (qPCR), the expression of ABCA1, SREBP1c, FASN, and SCD1, by using RNA from monocytic U937 cells (FIG. 3) and from hepatic HepG2 cells (FIG. 4) stimulated with our compounds, the non-steroidal agonist T0901317 or the endogenous ligand 22R—HC (3) as positive controls. […] Then, the induction of genes involved in the lipogenesis using the hepatic cell line HepG2. 43,22 was evaluated. […] Over the time, indeed, substantial efforts have been dedicated to the identification of LXR ligands able to turning on ABC transporter genes, without affecting lipogenic genes levels. This task is still one of the major challenge to the discovery of a clinically useful LXR modulator for atherosclerosis.
as §5

SREBP1c [2] = assay: qPCR of SREBP1c expression in PMA-differentiated U937 cells; format: cell-based, human; conditions: U937 differentiated with PMA 72 h; 10 μM, 6 hours
Experimental: as §6, §7, §5

TNFα = assay: qPCR of TNFα expression in differentiated U937 cells treated with LPS; format: cell-based, human; conditions: differentiated U937, 6 hours, 10 μM in combination with LPS (100 ng/ml)
Experimental: as §4, §5

ABCA1 = assay: qPCR of ABCA1 expression in PMA-differentiated U937 cells; format: cell-based, human; conditions: U937 differentiated with PMA 72 h; 10 μM, 6 hours
Experimental: as §6, §7, §5

[3] = read-out: LXRβ Efficacy (%) ± SD, % of compound effect versus 8 μM of 22R-HC
[4] = % of compound effect versus 8 μM of 22R-HC, read-out: LXRβ Efficacy (%) ± SD
[5] = % of compound effect versus 8 μM of 22R-HC

| SMILES | Emax (hLXRβ; [3]) [%] | Emax (hLXRα) [%] | EC50 (hLXRβ) [µM] | EC50 (hLXRα) [µM] | Emax (hLXRβ; [4]) [%] | Emax (hLXRα; [5]) [%] | inhibition of CCL2 expression (MCP-1/CCL2) | further results |
| --- | --- | --- | --- | --- | --- | --- | --- | --- |
| C=C[C@@](O)(CC[C@@H](C)C1CCC2C3CC=C4C[C@@H](O)CC[C@]4(C)C3CC[C@@]21C)C(C)C (stereo partly drawn) [Compound 12, 24(S)-saringosterol, reference compound] | 61 ± 17.4 | 43.4 ± 17.6 |  |  |  |  |  | beta/alfa efficacy ratio (hLXRβ; LXRβ efficacy over LXRα efficacy): 1.4 |
| CC[C@@H](C(C)C)[C@@H]1O[C@H]1[C@@H](C)[C@H]1CC[C@H]2[C@@H]3CC=C4C[C@@H](O)CC[C@]4(C)[C@H]3CC[C@]12C [Compound 14, (22S,23S)-22,23-Epoxystigmast-5-ene-3β-ol] | 36.3 ± 3 | 56.8 ± 4.6 | 12.7 ± 2.7 | 16.4 ± 0.62 |  |  |  |  |
| CC(C)[C@@H](C)[C@H]1O[C@@H]1[C@@H](C)[C@H]1CC[C@H]2C3=CC=C4C[C@@H](O)CC[C@]4(C)[C@H]3CC[C@]12C [Compound 15, (22R,23R)-22,23-Epoxyergosta-5,7-diene-3β-ol] |  |  | 7.2 ± 0.94 | 4.11 ± 0.31 | 30.4 ± 10.6 | 93.2 ± 5.8 |  | PXR activation (hPXR): slight activation of PXR |
| CC(C)[C@@H](C)[C@@H]1O[C@H]1[C@@H](C)[C@H]1CC[C@H]2C3=CC=C4C[C@@H](O)CC[C@]4(C)[C@H]3CC[C@]12C [Compound 16, (22S,23S)-22,23-Epoxyergosta-5,7-diene-3β-ol] |  |  | 1.96 ± 0.05 | 1.5 ± 0.12 | 48.5 ± 13 | 51.7 ± 3.8 | same grade of potency of the positive control T0901317 | LXR isoform selectivity profile (hLXRα; LXRα versus LXRβ, GAL4 luciferase assays): non-selective and poorly preferential LXRα agonists; SREBP-1c up-regulation (SREBP1c [1]): significant up-regulation of SREBP-1c |
| CC[C@@H](C(C)C)[C@H](O)C[C@@H](C)[C@H]1CC[C@H]2[C@@H]3CC=C4C[C@@H](O)CC[C@]4(C)[C@H]3CC[C@]12C [Compound 19, (23R)-3β-Stigmast-5-ene-3,23-diol] |  |  | 2.7 ± 1.16 | 3.2 ± 0.54 |  |  | same grade of potency of the positive control T0901317 | SCD1 expression (SCD1): poor activators of SREBP1c and SCD1; SREBP-1c up-regulation (SREBP1c [2]): poor activators of SREBP1c and SCD1; inhibition of TNFα expression (TNFα): the most active; ABCA1 expression (ABCA1): strong induction of ABCA1 expression |
